From patent US20250382298A1, “NITROGEN-CONTAINING COMPOUND AND USE THEREOF” (SUZHOU GENHOUSE BIO CO., LTD., priority 2022, published 2025)
Read-outs that look alike come from different tables or passages of the source.

Tests used:
[1] = Pharmacokinetic test in rats; format: in vivo; settings: SD rats; for AUC / Cmax / half-life: rat, plasma; for half-life: read-out: t½ (converted)
Description: In this example, the pharmacokinetic behavior of the compounds after intravenous injection (IV) and intragastric (PO) administration in SD rats was tested.
On the day of administration, rats were weighed for actual body weight and the administration volume was calculated. Each compound was tested in two groups with 3 rats in each group; one group was subjected to administration by single intravenous injection, and the other group was subjected to single intragastric administration. Whole blood samples were collected via the jugular vein at prescribed time points (0.25 h, 0.5 h, 1 h, 2 h, 4 h, 8 h, and 24 h after administration). After blood sample collection, the samples were immediately transferred to labeled commercial sample tubes containing K2-EDTA (0.85-1.15 mg), followed by centrifugation (3200×g, 4° C., 10 min) and plasma collection. The plasma was transferred to a pre-cooled centrifuge tube, frozen in dry ice, and then stored in an ultra-low temperature freezer at −60° C. or lower until the LC-MS/MS analysis.
Plasma concentrations were determined by the LC-MS/MS method. Plasma drug concentration data for the compounds were processed using a non-compartmental model in the WinNonlin Version 6.3 (Pharsight, Mountain View, CA) pharmacokinetic software. The relevant pharmacokinetic parameters were calculated by a linear-log trapezoidal method.

[2] = Stability test in human liver microsomes; format: in vitro ADME, humans; settings: human liver microsomes 0.5 mg/mL, 1.0 μM substrate; for CLint scaled at 1 μM / half-life at 1 μM: pH 7.4; for CLint scaled at 1 μM: read-out: HLM 0.5 CLint(liver); for half-life at 1 μM: read-out: HLM 0.5 T½
Description: The phase I metabolic stability of the compounds in liver microsomes of CD-1 mice, Sprague-Dawley rats, beagle dogs, cynomolgus monkeys, and humans was assessed.
The animal and human liver microsomes used in the test system were purchased from Xenotech, Corning, or other qualified suppliers and stored in a freezer at a temperature below −60° C. prior to use.
The test samples and control compounds were separately incubated with animal and human liver microsomes at 37±1° C. for a period of incubation time up to 60 min. The samples were removed at the indicated time points, and the reaction was stopped with acetonitrile or another organic solvent containing an internal standard. After centrifugation, the resulting supernatants were assayed by the liquid chromatography-tandem mass spectrometry (LC-MS/MS) method.
73.21 g of dipotassium hydrogen phosphate trihydrate and 10.78 g of potassium dihydrogen phosphate were dissolved in 4000 mL of ultrapure water. The solution was adjusted to pH 7.40±0.10 with 10% phosphoric acid or 1 M potassium hydroxide to make a final concentration of 100 mM.
The test sample powder was prepared into a stock solution at a certain concentration with DMSO or another organic solvent, which was then further diluted with a suitable organic solvent.
Microsomes of each species were diluted into a 2× working solution with a 100 mM potassium phosphate buffer. The final concentration of the microsomes in the reaction system was 0.5 mg/mL.
An appropriate amount of nicotinamide adenine dinucleotide phosphate (NADP) and isocitric acid (ISO) powder was weighed out, dissolved in a magnesium chloride solution, and shaken and mixed well. An appropriate amount of isocitrate dehydrogenase (IDH) was added, and the mixture was mixed well by gently turning upside down. The final concentrations in the reaction system were: 1 mM NADP, 1 mM magnesium chloride, 6 mM ISO, and 1 unit/mL IDH.
The stop solution was prepared with acetonitrile or another organic solvent containing an internal standard (tolbutamide or another suitable compound). The prepared stop solution was stored in a freezer at 2-8° C.
Incubation was performed in a 96-well plate. Eight incubation plates were prepared and designated T0, T5, T15, T30, T45, T60, Blank60, and NCF60, respectively. The first 6 plates corresponded to reaction time points of […], respectively. No test sample or control compound was added to the Blank60 plate, and samples were taken after 60 min of incubation. In the NCF60 plate, incubation was performed for 60 min using the potassium phosphate buffer instead of the NADPH regeneration system solution. Three replicates were made for samples in all conditions.
The microsomes and the test sample or control compound were mixed, and then the incubation plates Blank60, T5, T15, T30, T45, and T60 except for TO and NCF60 were placed in a 37° C. water bath for pre-incubation for about 10 min. In the incubation plate T0, a stop solution was first added, followed by addition of the NADPH regeneration system working solution, and 98 μL of the potassium phosphate buffer was added to each sample well of the incubation plate NCF60 to initiate the reaction. After the pre-incubation of the incubation plates Blank60, T5, T15, T30, T45, and T60 was completed, 98 μL of the NADPH regeneration system working solution was added to each sample well to initiate the reaction. The reaction temperature was 37±1° C., the final volume of the reaction was 200 μL, and the reaction system included 0.5 mg/mL microsomes, 1.0 μM substrate, 1 mM NADP, 6 mM ISO, and 1 unit/ml IDH.
At 5 min, 15 min, […], 45 min, and 60 min, a cold stop solution containing an internal standard was added to the reaction plate to stop the reaction.
All the reaction plates after the reaction was stopped were shaken well and centrifuged at 3220×g at 4° C. for 20 min. After the supernatant was diluted at a certain ratio, LC-MS/MS analysis was performed. […]

[3] = biological target: cytochrome oxidase P450 3A4 (Homo sapiens (Human), UniProt P08684); assay: Inhibition of cytochrome oxidase P450 3A4 (Midazolam); format: in vitro ADME; settings: liver microsomes, CYP3A4, Midazolam
[4] = biological target: cytochrome oxidase P450 1A2 (Homo sapiens (Human), UniProt P05177); assay: Inhibition of cytochrome oxidase P450 1A2; format: in vitro ADME; settings: liver microsomes, CYP1A2
cytochrome oxidase P450 1A2, sequence (P05177 whole entry): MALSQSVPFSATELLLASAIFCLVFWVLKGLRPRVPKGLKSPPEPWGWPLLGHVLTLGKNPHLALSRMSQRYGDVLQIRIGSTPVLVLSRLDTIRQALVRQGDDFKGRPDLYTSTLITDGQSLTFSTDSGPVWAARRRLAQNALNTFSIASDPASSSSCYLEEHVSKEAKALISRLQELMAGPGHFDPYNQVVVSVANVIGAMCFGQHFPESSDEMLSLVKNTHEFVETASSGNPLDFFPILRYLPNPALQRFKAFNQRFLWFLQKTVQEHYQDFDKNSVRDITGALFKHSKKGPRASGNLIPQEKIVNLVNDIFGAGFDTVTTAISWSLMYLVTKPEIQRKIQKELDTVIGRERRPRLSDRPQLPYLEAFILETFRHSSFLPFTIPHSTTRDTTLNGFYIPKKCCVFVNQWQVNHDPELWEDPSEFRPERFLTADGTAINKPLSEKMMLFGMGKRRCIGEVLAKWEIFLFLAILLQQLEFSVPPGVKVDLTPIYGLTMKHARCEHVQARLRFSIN

cytochrome oxidase P450 3A4, sequence (P08684 whole entry): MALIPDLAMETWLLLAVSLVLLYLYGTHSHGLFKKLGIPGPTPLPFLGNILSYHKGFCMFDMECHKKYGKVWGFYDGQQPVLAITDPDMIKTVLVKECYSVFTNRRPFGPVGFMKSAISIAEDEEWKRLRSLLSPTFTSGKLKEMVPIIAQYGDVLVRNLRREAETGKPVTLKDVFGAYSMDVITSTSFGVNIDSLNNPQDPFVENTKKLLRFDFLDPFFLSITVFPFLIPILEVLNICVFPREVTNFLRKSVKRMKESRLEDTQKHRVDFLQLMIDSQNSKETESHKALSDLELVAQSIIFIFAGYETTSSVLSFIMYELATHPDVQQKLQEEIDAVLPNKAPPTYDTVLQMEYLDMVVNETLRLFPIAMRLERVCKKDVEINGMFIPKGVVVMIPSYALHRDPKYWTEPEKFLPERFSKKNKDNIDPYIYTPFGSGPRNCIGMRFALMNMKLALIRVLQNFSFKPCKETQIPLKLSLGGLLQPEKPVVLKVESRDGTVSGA

SMILES	F ([1]; PO @5mpk)	AUC ([1]; 5 mg/kg, PO @5mpk)	Cmax ([1]; 5 mg/kg, PO @5mpk)	half-life ([1]; 5 mg/kg, PO @5mpk)	CLint scaled at 1 μM [2]	half-life at 1 μM [2]	IC50 [3]	IC50 [4]	F ([1]; PO @30mpk)	AUC ([1]; 30 mg/kg, PO @30mpk)	Cmax ([1]; 30 mg/kg, PO @30mpk)	half-life ([1]; 30 mg/kg, PO @30mpk)	HLM 0.5 CLint(liver) [2]	HLM 0.5 T½ [2]
Cc1cc(NC(=O)c2ccc(NS(=O)(=O)CCO)cc2N2CC3CCC(C3)C2)nc(N2CCC(F)(F)CC2)n1 [Compound 3]	57%	16.2 µM·h	1330 nM	420 min	–	–	–	–	–	–	–	–	–	–
O=C(Nc1cc2ccccc2c(N2CCC(F)(F)CC2)n1)c1ccc(NS(=O)(=O)CCO)cc1N1CCC2(CC1)CC2 [Compound 6]	23%	8.92 µM·h	509 nM	3350 min	< 8.6 mL/min/kg	> 145 min	> 10 µM	> 10 µM	–	–	–	–	–	–
O=C(Nc1cn2ccnc2c(N2CCC(F)(F)CC2)n1)c1ccc(NS(=O)(=O)CCO)cc1N1CCC2(CC1)CC2 [Compound 8]	16%	1.56 µM·h	303 nM	354 min	< 8.6 mL/min/kg	> 145 min	> 10 µM	> 10 µM	–	–	–	–	–	–
CS(=O)(=O)Nc1ccc(C(=O)Nc2cn3ccnc3c(N3CCC(F)(F)CC3)n2)c(N2CCC3(CC2)CC3)c1 [Compound 10]	–	–	–	–	< 8.6 mL/min/kg	> 145 min	–	–	–	–	–	–	–	–
O=C(Nc1cc2c(c(N3CCC(F)(F)CC3)n1)COC2)c1ccc(NS(=O)(=O)CCO)cc1N1CCC2(CC1)CC2 [Compound 14]	25%	1.92 µM·h	351 nM	384 min	22.3 mL/min/kg	56 min	–	–	–	–	–	–	–	–
O=C(Nc1cc2ccsc2c(N2CCC(F)(F)CC2)n1)c1ccc(NS(=O)(=O)CCO)cc1N1CCC2(CC1)CC2 [Compound 15]	27%	9.67 µM·h	540 nM	1370 min	< 8.6 mL/min/kg	> 145 min	–	–	–	–	–	–	–	–
O=C(Nc1cn2ccnc2c(N2CCC(F)(F)CC2)n1)c1ccc(NS(=O)(=O)CCO)cc1N1CC2CCC(C2)C1 [Compound 17]	39%	3.2 µM·h	582 nM	294 min	–	–	–	–	–	–	–	–	–	–
O=C(Nc1cn2cnnc2c(N2CCC(F)(F)CC2)n1)c1ccc(NS(=O)(=O)CCO)cc1N1CCC2(CC1)CC2 [Compound 24]	–	–	–	–	–	–	–	–	–	–	–	–	9.4 mL/min/kg	133.2 min

The next lines start with results.

F ([1]; PO @5mpk)	AUC ([1]; 5 mg/kg, PO @5mpk)	Cmax ([1]; 5 mg/kg, PO @5mpk)	half-life ([1]; 5 mg/kg, PO @5mpk)	CLint scaled at 1 μM [2]	half-life at 1 μM [2]	IC50 [3]	IC50 [4]	F ([1]; PO @30mpk)	AUC ([1]; 30 mg/kg, PO @30mpk)	Cmax ([1]; 30 mg/kg, PO @30mpk)	half-life ([1]; 30 mg/kg, PO @30mpk)	SMILES	HLM 0.5 CLint(liver) [2]	HLM 0.5 T½ [2]
63%	20.5 µM·h	1240 nM	732 min	11.6 mL/min/kg	108 min	> 10 µM	> 10 µM	–	–	–	–	CS(=O)(=O)Nc1ccc(C(=O)Nc2cn3ccnc3c(N3CCC(F)(F)CC3)n2)c(N2CC3CCC(C3)C2)c1 [Compound 19]	–	–
24.7%	33.9 µM·h	2090 nM	636 min	< 8.6 mL/min/kg	> 145 min	> 10 µM	> 10 µM	–	–	–	–	O=C(Nc1cc2cccnc2c(N2CCC(F)(F)CC2)n1)c1ccc(NS(=O)(=O)CCO)cc1N1CCC2(CC1)CC2 [Compound 21]	–	–
–	–	–	–	< 8.6 mL/min/kg	> 145 min	–	–	–	–	–	–	O=C(Nc1cn2ncnc2c(N2CCC(F)(F)CC2)n1)c1ccc(NS(=O)(=O)CCO)cc1N1CCC2(CC1)CC2 [Compound 23]	–	–
–	–	–	–	1.9 mL/min/kg	920 min	> 10 µM	> 10 µM	25.7%	62.5 µM·h	3430 nM	3980 min	O=C(Nc1cn2c(F)cnc2c(N2CCC(F)(F)CC2)n1)c1ccc(NS(=O)(=O)CCO)cc1N1CCC2(CC1)CC2 [Compound 34]	–	–
–	–	–	–	14.3 mL/min/kg	121 min	0.24 µM	> 10 µM	–	–	–	–	CS(=O)(=O)Nc1ccc(C(=O)Nc2cc3cc[nH]c3c(N3CCC(F)(F)CC3)n2)c(N2CCC3(CC2)CC3)c1 [Compound 47]	–	–
